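These data come from cells grown in 96-well plates and exposed to compound for 48 hours at five concentrations. GI50 is the concentration that inhibits growth by half. TGI denotes the concentration required for complete inhibition of growth.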
Tests used:
Experiment in all cases: NCI tumour cell line growth inhibition, 48 h
COLO 205 colon = system: COLO 205 colon
HCT-116 colon = system: HCT-116 colon
LOX IMVI melanoma = system: LOX IMVI melanoma
SK-MEL-5 melanoma = system: SK-MEL-5 melanoma
SNB-19 CNS = system: SNB-19 CNS
UACC-62 melanoma = system: UACC-62 melanoma
SF-539 CNS = system: SF-539 CNS
HS 578T breast = system: HS 578T breast
MCF7 breast = system: MCF7 breast
MDA-MB-231 breast = system: MDA-MB-231 breast

## COC(=O)C1Cc2c(n(C)c3ccccc23)C(c2ccccc2)N1 (stereo unspecified)
COLO 205 colon
  TGI: > 100 µM
HCT-116 colon
  TGI: > 100 µM
LOX IMVI melanoma
  TGI: > 100 µM
SK-MEL-5 melanoma
  TGI: 93 µM
SNB-19 CNS
  TGI: > 100 µM
UACC-62 melanoma
  TGI: > 100 µM

## C=CC[P@@]1(=O)O[C@H](c2ccccc2)C(C)N1C(C)C (stereo partly specified)
LOX IMVI melanoma
  TGI: > 100 µM
SF-539 CNS
  TGI: > 100 µM
SK-MEL-5 melanoma
  TGI: > 100 µM
SNB-19 CNS
  TGI: > 100 µM
UACC-62 melanoma
  TGI: > 100 µM

## O=C(Nc1cccc(C2=NCCN2)c1)c1ccc(OCCCOc2ccc(C(=O)Nc3cccc(C4=NCCN4)c3)cc2)cc1
HS 578T breast
  GI50: 2.55 µM
  TGI: 6.6 µM
SNB-19 CNS
  GI50: 2.69 µM
  TGI: > 100 µM
UACC-62 melanoma
  GI50: 1.41 µM
  TGI: 45.7 µM

## COC(=O)/C=C1\SC(=Nc2ccc(C(F)(F)F)cc2)N(CCc2c[nH]c3ccccc23)C1=O
COLO 205 colon
  GI50: 1.88 µM
  TGI: 3.65 µM
HCT-116 colon
  GI50: 1.21 µM
  TGI: 2.47 µM
LOX IMVI melanoma
  GI50: 1.49 µM
  TGI: 2.81 µM
MCF7 breast
  GI50: 1.16 µM
  TGI: 4.53 µM
MDA-MB-231 breast
  GI50: 1.5 µM
  TGI: 2.87 µM
SF-539 CNS
  GI50: 1.62 µM
  TGI: 3.02 µM
SK-MEL-5 melanoma
  GI50: 1.69 µM
  TGI: 3.06 µM
SNB-19 CNS
  GI50: 1.78 µM
  TGI: 3.45 µM
UACC-62 melanoma
  GI50: 1.62 µM
  TGI: 3.47 µM

## Cc1cc(N(CCC#N)CCC#N)ccc1N=Nc1ccccc1[N+](=O)[O-]
COLO 205 colon
  TGI: > 100 µM
LOX IMVI melanoma
  TGI: > 100 µM
SF-539 CNS
  TGI: > 100 µM
SK-MEL-5 melanoma
  TGI: > 100 µM
UACC-62 melanoma
  TGI: > 100 µM

## NC(=O)c1csc(C2O[C@@H](COP(=O)(O)OP(=O)(O)OC[C@H]3OC(n4cnc5c(N)ncnc54)[C@H](O)[C@@H]3O)[C@H](O)[C@@H]2O)n1 (stereo partly specified)
COLO 205 colon
  TGI: > 100 µM
LOX IMVI melanoma
  TGI: > 100 µM
SF-539 CNS
  TGI: > 100 µM
SK-MEL-5 melanoma
  TGI: > 100 µM
SNB-19 CNS
  TGI: > 100 µM
UACC-62 melanoma
  TGI: > 100 µM

## CC(=O)CC(=O)CCCC(=O)Nc1ccc(Cl)cc1Cl
COLO 205 colon
  TGI: > 100 µM
HCT-116 colon
  TGI: > 100 µM
LOX IMVI melanoma
  TGI: > 100 µM
SF-539 CNS
  TGI: > 100 µM
SNB-19 CNS
  TGI: > 100 µM
UACC-62 melanoma
  TGI: > 100 µM

## O=C1C2c3[nH]c4ccccc4c3C3CCSCC3C2C(=O)N1c1ccccc1 (stereo unspecified)
COLO 205 colon
  TGI: > 100 µM
HCT-116 colon
  TGI: > 100 µM
LOX IMVI melanoma
  TGI: > 100 µM
SF-539 CNS
  TGI: > 100 µM
SK-MEL-5 melanoma
  TGI: > 100 µM
SNB-19 CNS
  TGI: > 100 µM
UACC-62 melanoma
  TGI: > 100 µM

## N#Cc1c2ccccc2c2nnc3cc(C(F)(F)F)ccc3n12
COLO 205 colon
  GI50: 37.4 µM
  TGI: > 100 µM
HCT-116 colon
  GI50: 25.4 µM
  TGI: > 100 µM
LOX IMVI melanoma
  GI50: 21.7 µM
  TGI: 62.9 µM
MCF7 breast
  GI50: 10.7 µM
  TGI: 80.9 µM
SNB-19 CNS
  GI50: > 100 µM
  TGI: > 100 µM

## CC1=CCP(C(F)(F)F)P(C(F)(F)F)C1 (stereo unspecified)
COLO 205 colon
  TGI: > 100 µM
HCT-116 colon
  TGI: > 100 µM
LOX IMVI melanoma
  TGI: > 100 µM
SF-539 CNS
  TGI: > 100 µM
SK-MEL-5 melanoma
  TGI: > 100 µM
SNB-19 CNS
  TGI: > 100 µM
UACC-62 melanoma
  TGI: > 100 µM

Reference: PubChem BioAssay (NCI)
